Results taken from PubChem BioAssay (NCI).
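GI50 = concentration required for 50% inhibition of growth. TGI is the concentration that stops growth completely.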

Experiments:
Assay in all cases: NCI anticancer screen, dose series, 384-well format
[1] = test system: NCI-H460 NSCLC
[2] = test system: K-562 leukemia
[3] = test system: SF-539 CNS
[4] = test system: SN12C renal
[5] = test system: KM12 colon
[6] = test system: SF-295 CNS
[7] = test system: TK-10 renal
[8] = test system: OVCAR-8 ovarian
[9] = test system: 786-0 renal
[10] = test system: RXF 393 renal
[11] = test system: HOP-92 NSCLC
[12] = test system: NCI-H226 lung
[13] = test system: ACHN renal
[14] = test system: UO-31 renal
[15] = test system: SK-MEL-5 melanoma
[16] = test system: LOX IMVI melanoma
[17] = test system: CCRF-CEM leukemia
[18] = test system: HOP-62 NSCLC
[19] = test system: NCI-H23 lung
[20] = test system: OVCAR-3 ovarian
[21] = test system: HCC-2998 colon
[22] = test system: NCI/ADR-RES ovarian
[23] = test system: NCI-H522 lung
[24] = test system: U251 glioblastoma
[25] = test system: T-47D breast
[26] = test system: HT29 colon
[27] = test system: A498 renal
[28] = test system: SK-MEL-2 melanoma
[29] = test system: MDA-MB-231 breast
[30] = test system: MDA-MB-435 melanoma
[31] = test system: M14 melanoma
[32] = test system: HCT-116 colon
[33] = test system: DU-145 prostate
[34] = test system: NCI-H322M lung
[35] = test system: OVCAR-5 ovarian
[36] = test system: MALME-3M melanoma
[37] = test system: SK-OV-3 ovarian
[38] = test system: UACC-62 melanoma
[39] = test system: A549 NSCLC
[40] = test system: IGROV1 ovarian
[41] = test system: SW-620 colon
[42] = test system: PC-3 prostate
[43] = test system: HL-60(TB) leukemia
[44] = test system: CAKI-1 renal
[45] = test system: HCT-15 colon
[46] = test system: MOLT-4 leukemia
[47] = test system: SNB-19 CNS
[48] = test system: MCF7 breast
[49] = test system: MDA-MB-468 breast
[50] = test system: COLO 205 colon
[51] = test system: SF-268 CNS
[52] = test system: SR leukemia
[53] = test system: OVCAR-4 ovarian
[54] = test system: UACC-257 melanoma
[55] = test system: RPMI-8226 leukemia
[56] = test system: BT-549 breast
[57] = test system: SK-MEL-28 melanoma

Cc1cc(NC(=O)c2ccc(NS(=O)(=O)CCO)cc2N2CCC3(CC2)CC3)nc(N2CCC(F)(F)CC2)n1
GI50 [1]: 0.298 µM | TGI [1]: 1.05 µM | GI50 [2]: 1.57 µM | TGI [2]: 3.04 µM | GI50 [3]: 0.0537 µM | TGI [3]: 0.391 µM | GI50 [4]: 1.85 µM | TGI [4]: 3.53 µM | GI50 [5]: 0.694 µM | TGI [5]: 2.18 µM | GI50 [6]: 0.373 µM | TGI [6]: 1.14 µM | GI50 [7]: 2.16 µM | TGI [7]: 4.76 µM | GI50 [8]: 0.0716 µM | TGI [8]: 2.61 µM | GI50 [9]: 1.63 µM | TGI [9]: 3.07 µM | GI50 [10]: 0.0135 µM | TGI [10]: 0.0666 µM | GI50 [11]: 1.89 µM | TGI [11]: 3.41 µM | GI50 [12]: 1.57 µM | TGI [12]: 3.13 µM | GI50 [13]: 2.02 µM | TGI [13]: 4.94 µM | GI50 [14]: 1.25 µM | TGI [14]: 2.89 µM | GI50 [15]: 1.68 µM | TGI [15]: 3.07 µM | GI50 [16]: 2.12 µM | TGI [16]: 3.58 µM | GI50 [17]: 1.72 µM | TGI [17]: 3.12 µM | GI50 [18]: 1.94 µM | TGI [18]: 3.65 µM | GI50 [19]: 1.31 µM | TGI [19]: 2.67 µM | TGI [20]: 0.0235 µM | GI50 [21]: 0.0725 µM | TGI [21]: 0.402 µM | GI50 [22]: 0.101 µM | TGI [22]: 0.703 µM | GI50 [23]: 1.86 µM | TGI [23]: 4.33 µM | GI50 [24]: 0.0608 µM | TGI [24]: 0.479 µM | GI50 [25]: 0.694 µM | TGI [25]: 14.1 µM | GI50 [26]: 0.0317 µM | TGI [26]: 0.152 µM | GI50 [27]: 0.484 µM | TGI [27]: 2.35 µM | GI50 [28]: 0.0899 µM | TGI [28]: 2.91 µM | GI50 [29]: 0.0743 µM | TGI [29]: 2.48 µM | GI50 [30]: 0.686 µM | TGI [30]: 5.3 µM | GI50 [31]: 0.328 µM | TGI [31]: 1.25 µM | GI50 [32]: 1.44 µM | TGI [32]: 2.85 µM | GI50 [33]: 0.0563 µM | TGI [33]: 2.7 µM | GI50 [34]: 0.564 µM | TGI [34]: 3.37 µM | GI50 [35]: 2.01 µM | TGI [35]: 4.7 µM | GI50 [36]: 0.614 µM | TGI [36]: 3.42 µM | GI50 [37]: 0.0895 µM | TGI [37]: 5.81 µM | GI50 [38]: 1.59 µM | TGI [38]: 3.49 µM | GI50 [39]: 2.53 µM | TGI [39]: 6.67 µM | GI50 [40]: 1.94 µM | TGI [40]: 4.96 µM | GI50 [41]: 1.65 µM | TGI [41]: 3.14 µM | GI50 [42]: 1.85 µM | TGI [42]: 3.39 µM | GI50 [43]: 2.2 µM | TGI [43]: 3.67 µM | GI50 [44]: 1.89 µM | TGI [44]: 6.28 µM | GI50 [45]: 1.66 µM | TGI [45]: 3.06 µM | GI50 [46]: 1.76 µM | TGI [46]: 3.18 µM | GI50 [47]: 1.44 µM | TGI [47]: 3.11 µM | GI50 [48]: 2.09 µM | TGI [48]: 4.91 µM | GI50 [49]: 0.0352 µM | TGI [49]: 0.648 µM | GI50 [50]: 1.66 µM | TGI [50]: 3.28 µM | GI50 [51]: 1.42 µM | TGI [51]: 3.31 µM | GI50 [52]: 0.0221 µM | TGI [52]: 0.135 µM | GI50 [53]: 0.258 µM | TGI [53]: 1.3 µM | GI50 [54]: 0.39 µM | TGI [54]: 1.96 µM | GI50 [55]: 1.59 µM | TGI [55]: 2.95 µM | GI50 [56]: 0.0246 µM | TGI [56]: 1.26 µM | GI50 [57]: 0.792 µM | TGI [57]: 5.84 µM
